Measurements from PubChem BioAssay AID449750 (Broad Institute, 2010).
Where “and” joins values, the source holds several entries; their conditions need not be identical. Equal values may be shown once. Calls of active or inactive are those of the source. No rule for the calls is given here.

Assay: non-covalent RecA intein splicing inhibitors, dose response, biochemical, cell-free, fluorescence, secondary screen (AID 449750)
For `Cc1nc2ccccc2c2c1C(=O)N(c1cccc(C(=O)O)c1)C2=O`, the AC50 was > 38 µM (inactive).
For `COC(=O)c1cc([N+](=O)[O-])c(-n2ccnc2)c([N+](=O)[O-])c1`, the AC50 was > 38 µM (inactive).
For `CCOC(=O)CSc1nnc(NCC(=O)OC)c(=O)[nH]1`, the AC50 was > 38 µM (inactive).
With `CCc1ccc(S(=O)(=O)/N=C2\C=C(Nc3ccc(O)cc3)C(=O)c3ccccc32)cc1` the AC50 was 0.56 µM.
In the case of `O=C(CCN1C(=O)/C(=C/c2cccs2)SC1=S)Nc1cccc(O)c1`, the AC50 is reported as > 38 µM (inactive).
With `CCOc1c(Br)cc(/C=C2\C(=O)N(CCC#N)N=C2C)cc1OC` the AC50 was 11.1 µM.
In the case of `Cc1ccc(SCc2[nH]nc3c2C2(CCSCC2)C(C#N)=C(N)O3)cc1`, the AC50 is reported as 30.4 µM.
`CCOc1ccccc1CNc1ccc(O)cc1` showed an AC50 of 37.6 µM.
`O=S(=O)(Nc1ccc(O)c2ccccc12)c1ccc(F)cc1` gave an AC50 of 0.377 µM.
Compound `CC(=O)N(C)C1=C(N2CCOCC2)C(=O)c2ccccc2C1=O` has an AC50 of 15.7 µM.
Compound `CCCc1[nH][nH]c(=O)c1C(c1cccc(Cl)c1)C(C#N)C#N` (centres undefined) has an AC50 of 9.32 µM.
With `CCOc1ccc(C(c2c(C)[nH][nH]c2=O)c2c(C)[nH][nH]c2=O)cc1OCC` the AC50 was 9.1 µM.
Compound `COc1ccc(N(Cc2cc(=O)[nH]c3ccccc23)C(=O)CCl)cc1` has an AC50 of 8.33 µM.
For `CSc1nc(O)c(Nc2cccc(Cl)c2)c(=O)[nH]1`, the AC50 was > 38 µM (inactive).
`O=C(Cc1cc(=O)[nH][nH]1)N/N=C/c1ccccc1Cl` showed an AC50 of 15.8 µM.
In the case of `CCOC(=O)c1c(C)oc2c1c1c(c3ccccc32)OCN(CCCC(=O)O)C1`, the AC50 is reported as 4.93 µM.
`O=C1C(C2=C(O)c3ccccc3C2=O)=Nc2ccccc21` showed an AC50 of 2.98 µM.
For `CCOC(=O)c1c(NC(=O)CSc2nnc(-c3c[nH]c4ccccc34)n2CCOC)sc2c1CCCC2`, the AC50 was > 38 µM (inactive).
With `CCCCCCCCCCC[N+](C)(C)CC/C=C1/c2ccccc2Sc2ccc(Cl)cc21` the AC50 was 4.77 µM.
`O=C(Nc1ccccc1)Nc1ccc(O)c2ccccc12` showed an AC50 of 14.4 µM.
In the case of `C=COC(=O)CSc1snc(SCC(=O)OC)c1C#N`, the AC50 is reported as > 38 µM (inactive).
`Cc1cccc(C)c1-n1cccc1/C=C1\SC(=S)N(c2cccc(C(=O)O)c2)C1=O` showed an AC50 of 7.18 µM.
In the case of `COC(=O)c1[nH]c(=O)c2ccccc2c1O`, the AC50 is reported as 12.1 µM.
In the case of `CCOc1ccc(N2C(=O)/C(=C\c3ccc(OC)c(O)c3)S(=O)(=O)C2c2cccc([N+](=O)[O-])c2)cc1` (centres undefined), the AC50 is reported as > 38 µM (inactive).
Compound `O=C(O)c1ccc(NC2=C(Cl)C(=O)c3ccccc3C2=O)cc1` has an AC50 of 3.91 µM.
For `COC1(OC)C(/C=C/c2ccc(C)cc2)C(C#N)(C#N)C1(OC)OC` (centres undefined), the AC50 was > 38 µM (inactive).
Compound `CN(Cc1ccc(Cl)s1)C(=O)CCl` has an AC50 of 19.3 µM.
For `CCCOC(=O)c1ccc(OC(=O)c2ccco2)cc1`, the AC50 was > 38 µM (inactive).
In the case of `CCOC(=O)C1CCN(S(=O)(=O)c2c(Cl)ccc3nonc23)CC1`, the AC50 is reported as 11.6 µM.
Work on `Cc1ccc(N(C(=O)CCl)C(C(=O)NC2CCCCC2)c2cccnc2)cc1C` (centres undefined) yielded an AC50 of 1 µM.
In the case of `CCN(CC)CCN1C(=O)C(O)=C(C(C)=O)C1c1ccccc1[N+](=O)[O-]` (centres undefined), the AC50 is reported as 37.7 µM.
Compound `COc1ccc(OC)c(Nc2cc3ccccc3c(=O)[nH]2)c1` has an AC50 of 1.92 µM.
For `O=C(Nc1ccccc1)c1nnsc1S(=O)c1ccc(Cl)cc1` (centres undefined), the AC50 was > 38 µM (inactive).
For `Fc1ccc(-[n+]2nc(Nc3ccccc3)sc2-c2c3ccccc3cc3ccccc23)cc1`, the AC50 was 12.4 µM.
Work on `O=C(O)CSc1c2c(nc3cc(C(=O)Nc4cccc(C(F)(F)F)c4)ccc13)CCCC2` yielded an AC50 of 21.7 µM.
In the case of `O=C(Oc1ccc(-c2nnco2)cc1)c1ccco1`, the AC50 is reported as > 38 µM (inactive).
In the case of `COC(=O)c1ccc(NC2=C(Cl)C(=O)OC2OC(=O)c2ccccc2)cc1` (centres undefined), the AC50 is reported as > 38 µM (inactive).
In the case of `O=C(Cc1ccccc1)NC1(O)C(=O)c2ccccc2C1=O`, the AC50 is reported as 7.01 µM.
`O=c1cc(-c2ccc(Cl)cc2)[nH][nH]1` gave an AC50 of 14.2 µM.
With `C/C(CC(=O)Nc1ccc(F)cc1)=N\NC(=O)COc1ccccc1` the AC50 was > 38 µM (inactive).
In the case of `CCCCn1c(NC(=O)c2ccc(Br)o2)c(S(=O)(=O)c2ccccc2)c2nc3ccccc3nc21`, the AC50 is reported as > 38 µM (inactive).
For `O=c1cc(-c2cccc3ccccc23)[nH][nH]1`, the AC50 was 12.1 µM.
Work on `COc1cccc(NC(=S)/C(=C(\[O-])c2ccc(OC(F)F)cc2)[n+]2ccccc2)c1` yielded an AC50 of 28.1 µM.
With `COc1ccccc1/C=C/C1(C(=O)NC2CCCC2)CC(=O)N1c1ccc(F)cc1` (centres undefined) the AC50 was 9.42 µM.
For `Nc1nc(-c2ccco2)nn1C(=O)c1ccc(Cl)cc1`, the AC50 was > 38 µM (inactive).
For `O=C(Cc1cc(=O)[nH][nH]1)N/N=C/c1c(Cl)cccc1Cl`, the AC50 was 16 µM and 23.9 µM.
With `O=C1C(Cl)=C(N2CCOCC2)C(=O)N1c1ccccc1Cl` the AC50 was > 38 µM (inactive).
For `COc1ccc(CC2=CC(=O)c3ccccc3C2=O)cc1`, the AC50 was 6.95 µM.
For `CC1=NN(c2ccccc2)C(=O)/C1=C\c1cn(C)c2ccccc12`, the AC50 was > 38 µM (inactive).
`Cc1ccc2c(c1)-c1c(ssc1=S)C(C)(C)N2C(=O)CSC1=NCCS1` showed an AC50 of 32.5 µM.
Compound `Cc1ccc2c(c1)c1c3n2CCN(C(=O)CCl)C3CCC1` (centres undefined) has an AC50 of 3.29 µM.
With `Oc1ccc(C=Nc2ccc3ncccc3c2)c(O)c1` the AC50 was 3.75 µM.
`Cn1nc(-c2ccc(Cl)cc2)nc2c(=O)n(C)c(=O)nc1-2` showed an AC50 of 0.0579 µM.
`CC(C)(C)C(=O)Nc1ccc(N=Nc2ccccc2)cc1` showed an AC50 of 7.69 µM.
With `Cc1cccc(NC(=S)N/N=C2/CCCCc3ccccc32)c1` the AC50 was > 38 µM (inactive).
Compound `S=C(Nc1ccc2nsnc2c1)N1CCCCCC1` has an AC50 of 9.37 µM.
With `O=C1C=C(Nc2ccccc2)c2ccccc2C1=O` the AC50 was 5.18 µM.
For `Cc1[nH]nc2c1C1(CCN(C(=O)c3ccccc3)CC1)C(C#N)=C(N)O2`, the AC50 was > 38 µM (inactive).
`NC(=O)C1CCN(C2=C(Cl)C(=O)c3ccccc3C2=O)CC1` gave an AC50 of 1.97 µM.
For `CC1=NN(c2ccc(S(=O)(=O)O)cc2Cl)C(=O)C1`, the AC50 was 3.66 µM.
In the case of `CCc1ccc(NC(=O)c2nc(S(=O)(=O)Cc3ccccc3)ncc2Cl)cc1`, the AC50 is reported as > 38 µM (inactive).
`COc1ccc(-n2nc3c(c2NC(=O)CCl)CSC3)cc1` gave an AC50 of 26.9 µM.
In the case of `Cc1cc(C)n(-c2ccc([N+](=O)[O-])cc2)n1`, the AC50 is reported as > 38 µM (inactive).
In the case of `Cc1ccc(N2C(=O)C(Cl)=C(N3CCOCC3)C2=O)cc1Cl`, the AC50 is reported as > 38 µM (inactive).
With `CC(C)(C)c1[nH]nc2c1C(Cc1ccccc1)C(C#N)=C(N)O2` (centres undefined) the AC50 was > 38 µM (inactive).
For `CS(=O)(=O)c1nc(-c2ccccc2)cc(C(F)(F)F)n1`, the AC50 was > 38 µM (inactive).
With `Cc1[nH]n(-c2ccccc2)c(=O)c1C(c1ccc(C(=O)O)cc1)c1c(C)[nH]n(-c2ccccc2)c1=O` the AC50 was 2.11 µM.
In the case of `COc1cc2c(cc1OC)-c1c(OC)c(OC)cc3c1[C@H](C2)N(C)CC3`, the AC50 is reported as 27 µM.
Compound `Cc1cc(C(c2ccc(O)cc2)c2cc(C)c(O)cc2C)c(C)cc1O` has an AC50 of 4.95 µM.
In the case of `CN(CC(=O)Nc1ccc(N2CCOCC2)cc1)CC(=O)Nc1cccc(C#N)c1`, the AC50 is reported as > 38 µM (inactive).
In the case of `CC1=C(C)CC2(SC1)C(=O)N(c1ccccc1)N=C2N` (centres undefined), the AC50 is reported as > 38 µM (inactive).
With `O=C(CCl)Nc1ccc(-c2ccccc2)cc1` the AC50 was 5.56 µM.
With `CCOC(=O)c1c(C)[nH]c2c1-c1ccccc1C(=O)C2=O` the AC50 was 5.39 µM.
For `C/C(CC(=O)Nc1cc(C)ccn1)=N\NC(=O)C(=O)NC(C)C`, the AC50 was > 38 µM (inactive).
For `O=[N+]([O-])c1cncc([N+](=O)[O-])c1Nc1cccc(O)c1`, the AC50 was > 38 µM (inactive).
For `[O-]C1=N/[N+](=C/c2ccc(Cl)cc2)CC1`, the AC50 was > 38 µM (inactive).
In the case of `CCn1c(-c2ccccc2)c(C(=O)CCl)c2ccccc21`, the AC50 is reported as 6.01 µM.
Work on `CCOC(=O)c1cc(C)sc1NC(=O)CSC1=NCCS1` yielded an AC50 of 19.6 µM.
With `Cc1ccc(S(=O)(=O)/N=C2\C=C(Nc3cccc(C(=O)O)c3)C(=O)c3ccccc32)c(C)c1` the AC50 was > 38 µM (inactive).
With `CC(=O)NC1C(=O)N(CCN2CCOCC2)c2ccc(Br)cc21` (centres undefined) the AC50 was 18.1 µM.
For `Cn1ccnc1Sc1cc(NCCCO)c([N+](=O)[O-])c2nonc12`, the AC50 was > 38 µM (inactive).
Work on `Cc1nnc(N/N=C/c2cccc(OCc3ccc(Cl)c(Cl)c3)c2)n1N` yielded an AC50 of 23.4 µM.
`O=C1/C(=C/c2cccc([N+](=O)[O-])c2)CCc2ccccc21` showed an AC50 of 11.2 µM.
With `CC1=C(CC(=O)c2ccc(Cl)cc2)C(=O)c2ccccc2C1=O` the AC50 was 16.3 µM.
In the case of `CCc1nnc(NC(=O)c2nc(S(=O)(=O)Cc3ccc(C)cc3)ncc2Cl)s1`, the AC50 is reported as > 38 µM (inactive).
Compound `COc1ccc(C(=O)Nc2ccc(O)c3ccccc23)cc1` has an AC50 of 3.85 µM.
Compound `O=C(NC1(O)C(=O)c2ccccc2C1=O)c1c(Cl)cccc1Cl` has an AC50 of 12.5 µM.
With `Cc1ccc(N2C(=O)C(Cl)=C(N3CCN(C)CC3)C2=O)c(C)c1` the AC50 was > 38 µM (inactive).
In the case of `COc1ccc(-c2cc(C#N)nc(Cl)n2)cc1`, the AC50 is reported as > 38 µM (inactive).
With `Nc1nc(C(=O)N2CCOCC2)nn1C(=O)c1ccc(Cl)cc1` the AC50 was > 38 µM (inactive).
In the case of `Cc1ccc(S(=O)(=O)NCC2CCC(C(=O)NCCCN3CCOCC3)CC2)cc1` (centres undefined), the AC50 is reported as > 38 µM (inactive).
Compound `O=Cc1ccc(Sc2nnc(-c3ccccc3)o2)c([N+](=O)[O-])c1` has an AC50 of 21 µM.
For `CS(=O)(=O)c1ncc(Cl)c(C(=O)Nc2ccc(N3CCOCC3)cc2)n1`, the AC50 was > 38 µM (inactive).
For `COc1ccc(C(=O)n2nnc3ccccc32)cc1Br`, the AC50 was > 38 µM (inactive).
`CCCSc1nnc(Sc2nnnn2-c2ccccc2)s1` gave an AC50 of 14.2 µM.
For `CCCCCc1c2c(cc(O)c1C(=O)O)OC(=O)c1c(cc(OC)cc1C(=O)CCCC)O2`, the AC50 was 8.72 µM.
In the case of `Oc1ccc(N=Cc2ccc(OCc3ccccc3)cc2)cc1`, the AC50 is reported as > 38 µM (inactive).
For `CN(C)C(=O)c1ccc2c(c1[N+](=O)[O-])C(=O)c1ccccc1C2=O`, the AC50 was > 12 µM (inactive).
For `O=C1c2ccccc2-c2onc3ccc(N4CCCC4)c1c23`, the AC50 was > 38 µM (inactive).
Compound `Nc1ccc(Nc2ccccc2N)cc1` has an AC50 of 16 µM.
For `Cc1cc(-c2ccccc2)nc2cc(C(=O)N(Cc3ccccc3)Cc3ccccc3)nn12`, the AC50 was 18.8 µM.
Compound `C=CCN1C(=O)NC(c2ccc(OC)cc2)(C(F)(F)F)S/C1=C(\C#N)c1nnc(N2CCOCC2)n1-c1ccccc1` (centres undefined) has an AC50 of 32.4 µM.
With `Cc1[nH][nH]c(=O)c1C(c1cc2c(cc1Br)OCO2)c1c(C)[nH][nH]c1=O` the AC50 was 20.2 µM.
With `CC1=NNC(=O)C1Cc1ccccc1C` (centres undefined) the AC50 was > 38 µM (inactive).
For `CCC1=Nc2cc(C(=O)NCCN3CCCC3)ccc2Sc2ccccc21`, the AC50 was > 38 µM (inactive).
For `O=c1cc(-c2ccccc2)[nH][nH]1`, the AC50 was 12.8 µM.
For `COc1ccc(Nc2nc(N3CCCCC3)nc3ccccc23)c(OC)c1`, the AC50 was > 38 µM (inactive).
With `COCCN(C(=O)CCl)C(C(=O)NC1CCCCC1)c1ccccc1C` (centres undefined) the AC50 was 8.09 µM.
`Cc1ccc(-c2cc(NC(=O)CCl)n(-c3ccccc3)n2)cc1` gave an AC50 of 7.65 µM.
